The assay concerns the target AChE (acetylcholinesterase) (Electrophorus electricus, UniProt O42275). As to the kind of experiment: Ellman spectrophotometric assay. The assay is classed as biochemical. In general terms: DTNB colorimetry detects thiols as they appear.

Consider three compounds from paper PMC6271335, “Anti-Cholinesterase Activity of Lycopodium Alkaloids from Vietnamese Huperzia squarrosa (Forst.) Trevis” (Molecules, 2014).

AChE (acetylcholinesterase), sequence (O42275 24-633): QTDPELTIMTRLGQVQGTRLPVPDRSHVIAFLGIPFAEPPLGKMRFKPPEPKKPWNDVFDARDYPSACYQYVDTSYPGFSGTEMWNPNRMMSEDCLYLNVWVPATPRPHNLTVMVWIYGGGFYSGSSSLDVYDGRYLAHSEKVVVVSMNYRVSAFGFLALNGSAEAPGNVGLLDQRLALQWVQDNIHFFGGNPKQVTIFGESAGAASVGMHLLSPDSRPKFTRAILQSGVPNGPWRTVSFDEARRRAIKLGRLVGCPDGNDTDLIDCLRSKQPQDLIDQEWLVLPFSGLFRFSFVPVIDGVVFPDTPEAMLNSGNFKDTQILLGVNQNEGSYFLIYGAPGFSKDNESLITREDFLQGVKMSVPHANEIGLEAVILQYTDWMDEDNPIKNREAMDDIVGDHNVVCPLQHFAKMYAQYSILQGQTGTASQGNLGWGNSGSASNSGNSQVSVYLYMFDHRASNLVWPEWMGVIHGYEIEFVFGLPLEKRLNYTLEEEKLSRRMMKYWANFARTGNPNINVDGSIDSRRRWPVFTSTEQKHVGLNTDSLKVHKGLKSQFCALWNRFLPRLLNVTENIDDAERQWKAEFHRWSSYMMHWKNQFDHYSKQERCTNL

The term IC50 denotes the concentration at which inhibition is half-maximal. A higher IC50 goes with a need for much substance. The compound `COc1ccc2cc3[n+](cc2c1OC)CCc1cc2c(cc1-3)OCO2` [Berberine, reference compound] showed an IC50 of 0.268 µM. The figure for `CC(=O)OC1C(C)CC(=O)N2CCCC3=C(CCC2)C1CC3=O` (stereo not drawn) [compound 1, lycosquarosine A] is 170 µM; for acetylaposerratinine [compound 2] it is 15.2 µg/mL.
